Laboratory results taken from patent US5789434A, “Derivatives of substituted 4-biarylbutyric acid as matrix metalloprotease inhibitors” (priority 1995, dated 1998).
Values belong to the molecule of their own block, whether it stands above or below them. Non-standard residues stand in square brackets, D forms with d. Residues, ends and D or L forms follow the SMILES beside them. *: point of attachment. Dnp = O=[N+]([O-])c1ccc(*)c([N+](=O)[O-])c1; Mca = COc1ccc2c(CC(=O)*)cc(=O)oc2c1; Dap = NC[C@H](N)C(=O)O

Legend:
Assay type in all cases: biochemical
MMP-3 [1] = molecular target: T1, MMP-3 (Homo sapiens, UniProt P08254); experiment: Primary Thiopeptilide MMP-3 Inhibition Assay; details: for IC50: pH 6.5, 13 nM stromelysin, x (n) = average of n determinations, read-out: MMP-3 Thiopep. IC50; for inhibition at 5 µM: read-out: MMP-3 Thiopep. % inhibition
T1 construct: Truncated Prostromelysin-257 was expressed in a soluble form in E.coli; made in house; host or cells: E. coli

MMP-3 [2] = molecular target: T1, MMP-3; experiment: Secondary P218 Quenched fluorescence Assay for MMP-3 Inhibition; details: for IC50: P218 substrate, pH 6.5, 25° C., x (n) = average of n determinations, read-out: MMP-3 Fluorogenic IC50
Experimental: Truncated Prostromelysin-257 was expressed in a soluble form in E.coli as described by Marcy et al., Biochemistry, 30, 6476-6483, 1991. Soluble truncated prostromelysin was purified by a modification of the monoclonal antibody affinity chromatography method described by Housley et al., J. Biol. Chem., 268, 4481-87, 1993.
The assay is run continuously in a 3.0 ml cuvette using a Perkin-Elmer LS 50 B Spectrofluorimeter at 25° C. in a final volume of 2.0 mls. P218 substrate (10 mM) in 100% DMSO is diluted to a final concentration of 2.0 micromolar (μM) into assay buffer: 50 mM MES, pH 6.5 containing 150 mM NaCl, 10 mM CaCl2, 0.005% Brij-35, and 1%(v/v) DMSO. Test compounds(10 mM) in DMSO are diluted in assay buffer at an initial concentration of 10 to 100 micromolar. […] The reaction is initiated by the addition of recombinant stromelysin (MMP-3) at a final concentration of 1.0 nM. Upon peptide cleavage, the fluorescent MCA group was detected using an excitation wavelength of 328 nanometers and an emission wavelength of 393 nanometers.

MMP-9 [3] = molecular target: T2, MMP-9 (Homo sapiens, UniProt P14780); experiment: Thiopeptilide MMP-9 Inhibition Assay; details: for IC50: pH 6.5, x (n) = average of n determinations, read-out: MMP-9: Thiopep. IC50; for inhibition at 5 µM: read-out: MMP-9: Thiopep. % inhibition
T2 construct: from tissue; host or cells: human polymorphonuclear leukocytes (PMN) from whole blood (New York Blood Center), PMA-stimulated supernatant

MMP-2 [4] = molecular target: T3, MMP-2 (Homo sapiens, UniProt P08253); experiment: Secondary P218 Quenched fluorescence Assay for MMP-2 Inhibition; details: for IC50: 0.2 nM enzyme, x (n) = average of n determinations, read-out: MMP-2 Fluorogenic IC50
T3 sequence (P08253 110-660): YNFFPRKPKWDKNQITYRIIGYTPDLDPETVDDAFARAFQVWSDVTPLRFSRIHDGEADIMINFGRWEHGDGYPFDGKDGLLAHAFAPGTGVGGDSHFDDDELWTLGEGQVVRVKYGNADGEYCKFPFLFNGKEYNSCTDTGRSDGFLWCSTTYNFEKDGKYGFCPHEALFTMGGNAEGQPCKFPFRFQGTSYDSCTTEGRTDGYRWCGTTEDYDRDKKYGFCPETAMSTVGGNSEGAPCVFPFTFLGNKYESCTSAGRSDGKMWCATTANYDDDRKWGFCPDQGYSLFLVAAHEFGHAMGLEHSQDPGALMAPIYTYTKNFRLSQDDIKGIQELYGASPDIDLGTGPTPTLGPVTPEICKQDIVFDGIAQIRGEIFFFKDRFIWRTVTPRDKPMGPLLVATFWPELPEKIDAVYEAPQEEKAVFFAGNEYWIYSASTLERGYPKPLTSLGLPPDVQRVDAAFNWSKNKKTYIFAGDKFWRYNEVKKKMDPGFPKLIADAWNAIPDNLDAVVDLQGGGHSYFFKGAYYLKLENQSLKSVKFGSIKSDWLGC

MMP-3 [5] = molecular target: T1, MMP-3; experiment: Automated MMP Profiling Assay, MMP-3 fluorogenic; details: 96-well automated, P218
From the text: This assay with each invention compound was run with the three enzymes MMP-3, MMP-9 and MMP-2 in parallel as adapted for a 96-well microtitre plate using a Hamilton A® workstation.

MMP-9 [6] = molecular target: T2, MMP-9; experiment: Automated MMP Profiling Assay, MMP-9 fluorogenic; details: 96-well automated, P218
MMP-2 [7] = molecular target: T3, MMP-2; experiment: Automated MMP Profiling Assay, MMP-2 fluorogenic; details: 96-well automated, P218; read-out: MMP-2 Fluorogenic IC50 (profiling)
MMP = MMP inhibitory activity, comparison in words

T1 sequence (P08254 100-274 limits assumed): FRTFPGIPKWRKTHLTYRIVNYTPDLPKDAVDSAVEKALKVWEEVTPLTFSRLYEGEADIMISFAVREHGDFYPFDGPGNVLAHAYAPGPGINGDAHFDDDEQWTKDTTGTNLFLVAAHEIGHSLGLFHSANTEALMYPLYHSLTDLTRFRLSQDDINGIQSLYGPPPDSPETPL
T2 sequence (P14780 107-707 limits assumed): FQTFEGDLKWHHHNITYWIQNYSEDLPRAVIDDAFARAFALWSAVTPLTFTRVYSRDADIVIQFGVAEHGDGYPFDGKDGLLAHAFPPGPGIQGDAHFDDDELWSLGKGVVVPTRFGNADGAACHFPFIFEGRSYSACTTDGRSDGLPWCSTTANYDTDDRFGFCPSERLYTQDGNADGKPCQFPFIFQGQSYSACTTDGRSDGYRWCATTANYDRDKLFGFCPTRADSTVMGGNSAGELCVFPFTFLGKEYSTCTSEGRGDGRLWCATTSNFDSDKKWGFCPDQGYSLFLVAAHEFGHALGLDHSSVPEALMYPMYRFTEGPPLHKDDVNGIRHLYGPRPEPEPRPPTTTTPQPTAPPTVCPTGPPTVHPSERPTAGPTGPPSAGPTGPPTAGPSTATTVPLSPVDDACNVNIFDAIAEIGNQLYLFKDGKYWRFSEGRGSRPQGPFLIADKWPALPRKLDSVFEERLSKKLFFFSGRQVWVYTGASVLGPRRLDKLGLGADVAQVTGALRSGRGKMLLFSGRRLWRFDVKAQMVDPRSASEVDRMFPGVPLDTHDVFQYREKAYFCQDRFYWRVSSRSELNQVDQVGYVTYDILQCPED

IC50 (MMP-3 [1]): 440 nM | IC50 (MMP-3 [2]): 570 nM | IC50 (MMP-9 [3]): 1200 nM
Structure (SMILES): CC(C)CC(CC(=O)c1ccc(-c2ccc(Br)cc2)cc1)C(=O)O (stereo not drawn) [Example 14, [1,1'-Biphenyl]-4-butanoic acid, 4'-bromo-α-(2-methylpropyl)-γ-oxo-]

Structure (SMILES): CC(C)(C)C(=O)SCC(CC(=O)c1ccc(-c2ccc(Cl)cc2)cc1)C(=O)O (single isomer, unassigned) [Example 194, [1,1'-Biphenyl]-4-butanoic acid, 4'-chloro-α-[[(2,2-dimethyl-1-oxopropyl)thio]methyl]-γ-oxo-]
IC50 (MMP-3 [1]): 115 nM | IC50 (MMP-3 [2]): 62 nM | IC50 (MMP-9 [3]): 750 nM

Structure (SMILES): COC(=O)c1ccccc1SCC(CC(=O)c1ccc(-c2ccc(Cl)cc2)cc1)C(=O)O (stereo not drawn) [Example 244, [1,1'-Biphenyl]-4-butanoic acid, 4'-chloro-α-[[[2-(methoxycarbonyl)phenyl]thio]methyl]-γ-oxo-]
IC50 (MMP-3 [1]): 79 nM | IC50 (MMP-3 [2]): 27 nM | IC50 (MMP-9 [3]): 600 nM | IC50 (MMP-2 [4]; P218 substrate): 7 nM

Structure (SMILES): CCOC(=O)/C=C/c1ccc(-c2ccc(C(=O)CC(CCCc3ccccc3)C(=O)O)cc2)cc1 (stereo not drawn) [Example 42, [1,1'-Biphenyl]-4-butanoic acid, 4'-(3-ethoxy-3-oxo-1-propenyl)-γ-oxo-α-(3-phenylproyl)-, (E)-]
IC50 (MMP-3 [2]): 48 nM | IC50 (MMP-2 [4]; P218 substrate): 21 nM

Structure (SMILES): CCCCCOc1ccc(-c2ccc(C(=O)CC(CCCc3ccccc3)C(=O)O)cc2)cc1 (stereo not shown) [Example 85, 4-[4-(4-pentyloxyphenyl)phenyl]-4-oxo-2-(3-phenylpropyl)butanoic acid]
IC50 (MMP-3 [1]): 37 nM | inhibition at 5 µM (MMP-9 [3]): 44% | IC50 (MMP-3 [5]): 80 nM | IC50 (MMP-9 [6]): 767 nM | IC50 (MMP-2 [7]): 32 nM

Structure (SMILES): O=C(O)[C@H]1[C@H](CN2C(=O)c3ccccc3C2=O)CC[C@@H]1C(=O)c1ccc(-c2ccc(Cl)cc2)cc1 [Example 361, (1S,2R,5S)-trans-5-[4-(4-chlorophenyl)phenylcarbonyl]-trans-2-phthalimidomethylcyclopentanecarboxylic acid]
IC50 (MMP-3 [5]): 3 nM | IC50 (MMP-9 [6]): 0.5 nM | IC50 (MMP-2 [7]): 0.81 nM | MMP inhibitory activity (in words) (MMP): most active

Structure (SMILES): COc1ccc2c(CC(=O)N3CCC[C@H]3C(=O)N[C@@H](CCCCN)C(=O)N3CCC[C@H]3C(=O)N[C@@H](CC(C)C)C(=O)N[C@@H](C)C(=O)N[C@@H](CC(C)C)C(=O)N[C@@H](CNc3ccc([N+](=O)[O-])cc3[N+](=O)[O-])C(=O)N[C@@H](C)C(=O)N[C@@H](CCCNC(=N)N)C(N)=O)cc(=O)oc2c1 [Example P218] (Mca-PKPLAL[Dap](Dnp)AR-NH2)
turnover number of MMP-2 (MMP-2 [4]; P218 substrate): 400,000

IC50 (MMP-3 [1]): 118 nM | IC50 (MMP-3 [2]): 260 nM | IC50 (MMP-9 [3]): 500 nM
Structure (SMILES): CC(C)CC(CC(=O)c1ccc(-c2ccc(I)cc2)cc1)C(=O)O (stereo not drawn) [Example 41, [1,1'-Biphenyl]-4-butanoic acid, 4'-iodo-α-(2-methylpropyl)-γ-oxo-]

IC50 (MMP-3 [1]): 486 nM | IC50 (MMP-3 [2]): 805 nM | IC50 (MMP-9 [3]): 1000 nM
Structure (SMILES): CC(C)CC(CC(=O)c1ccc(-c2ccc(Cl)cc2)cc1)C(=O)O (stereo not drawn) [Example 1, [1,1'-Biphenyl]-4-butanoic acid, 4'-chloro-α-(2-methylpropyl)-γ-oxo-]

inhibition at 5 µM (MMP-3 [1]): 10% | inhibition at 5 µM (MMP-9 [3]): 27%
Structure (SMILES): CC(=O)SC(CC(=O)c1ccc(Oc2ccc(Cl)cc2)cc1)C(=O)O (stereo not drawn) [Example 254, Benzenebutanoic acid, α-(acetylthio)-4-(4-chlorophenoxy)-γ-oxo-, reference compound]
MMP inhibitory activity (in words) (MMP): very low potency

Structure (SMILES): CCOC(=O)CCc1ccc(-c2ccc(CCC(CCCc3ccccc3)C(=O)O)cc2)cc1 (stereo not drawn) [Example 44, [1,1'-Biphenyl]-4-butanoic acid, 4'-(3-ethoxy-3-oxopropyl)-α-(3-phenylpropyl)-]
IC50 (MMP-3 [2]): 1970 nM | IC50 (MMP-2 [4]; P218 substrate): 1150 nM

Structure (SMILES): O=C(O)[C@@H]1[C@@H](CN2C(=O)c3ccccc3C2=O)CC[C@H]1C(=O)c1ccc(-c2ccc(Cl)cc2)cc1 [Example 362, (1R,2S,5R)-trans-5-[4-(4-chlorophenyl)phenylcarbonyl]-trans-2-phthalimidomethylcyclopentanecarboxylic acid]
IC50 (MMP-3 [5]): 431 nM | IC50 (MMP-9 [6]): 100 nM | IC50 (MMP-2 [7]): 183 nM | MMP inhibitory activity (in words) (MMP): less active

inhibition at 5 µM (MMP-3 [1]): 27% | inhibition at 5 µM (MMP-9 [3]): 3%
Structure (SMILES): CC(C)CC(CC(=O)c1ccc(-c2ccccc2)cc1)C(=O)O (stereo not drawn) [Example 13, [1,1'-Biphenyl]-4-butanoic acid, α-(2-methylpropyl)-γ-oxo-]
MMP inhibitory activity (in words) (MMP): low potency

IC50 (MMP-3 [1]): 437 nM | IC50 (MMP-9 [3]): 2700 nM
Structure (SMILES): O=C(O)[C@@H]1CC[C@H]1C(=O)c1ccc(-c2ccc(Cl)cc2)cc1 (relative stereo) [Example 291, Cyclobutanecarboxylic acid, 2-[(4'-chloro[1,1'-biphenyl]-4-yl)carbonyl]-, trans-]
MMP inhibitory activity (in words) (MMP): much more active

Structure (SMILES): O=C(O)[C@@H]1[C@@H](C(=O)c2ccc(-c3ccc(Cl)cc3)cc2)CC[C@H]1Sc1ccccc1 (relative stereo) [Example 294, trans-5-[4-(4-chlorophenyl)phenylcarbonyl]-trans-^2-phenylthiocyclopentanecarboxylic acid]
IC50 (MMP-3 [1]): 47 nM | IC50 (MMP-3 [2]): 14 nM | IC50 (MMP-9 [3]): 56 nM | IC50 (MMP-2 [4]; P218 substrate): 4 nM | IC50 (MMP-3 [5]): 58 nM | IC50 (MMP-9 [6]): 176 nM | IC50 (MMP-2 [7]): 11 nM

Structure (SMILES): CC(C)(C)C(=O)SCC(CC(=O)c1ccc(-c2ccc(Cl)cc2)cc1)C(=O)O (stereo not drawn) [Example 193, [1,1'-Biphenyl]-4-butanoic acid, 4'-chloro-α-[[(2,2-dimethyl-1-oxopropyl)thio]methyl]-γ-oxo-]
IC50 (MMP-3 [1]): 153 nM | IC50 (MMP-3 [2]): 150 nM | IC50 (MMP-9 [3]): 2450 nM | IC50 (MMP-2 [4]; P218 substrate): 40 nM

Structure (SMILES): O=C(CC(CCCc1ccccc1)C(=O)O)c1ccc(-c2ccc(Cl)cc2)cc1 (stereo not shown) [Example 114, 4-[4-(4-chlorophenyl)phenyl]-4-oxo-2-(3-phenylpropyl)butanoic acid]
IC50 (MMP-3 [1]): 244 nM | IC50 (MMP-3 [2]): 120 nM | IC50 (MMP-9 [3]): 285 nM | IC50 (MMP-2 [4]; P218 substrate): 25 nM | IC50 (MMP-3 [5]): 246 nM | IC50 (MMP-9 [6]): 439 nM | IC50 (MMP-2 [7]): 68 nM

Structure (SMILES): O=C(O)CCc1ccc(-c2ccc(CCC(CCCc3ccccc3)C(=O)O)cc2)cc1 (stereo not drawn) [Example 45, [1,1'-Biphenyl]-4-butanoic acid, 4'-(2-carboxyethyl)-α-(3-phenylpropyl)-]
inhibition at 5 µM (MMP-3 [2]; at 5 μM, read-out: MMP-3 Fluorogenic % inhibition): 43% | inhibition at 5 µM (MMP-2 [4]; at 5 μM, read-out: MMP-2 Fluorogenic % inhibition): 56%

IC50 (MMP-3 [1]): 379 nM | IC50 (MMP-3 [2]): 480 nM | IC50 (MMP-9 [3]): 2700 nM
Structure (SMILES): CC(C)CC(CC(=O)O)C(=O)c1ccc(-c2ccc(Cl)cc2)cc1 (single isomer, unassigned) [Example 4, 5-methyl-3-[oxo-(4'-chloro-4-biphenyl)methyl]hexanoic acid]

IC50 (MMP-3 [1]): 310 nM | IC50 (MMP-3 [2]): 900 nM
Structure (SMILES): O=C(CC(Cc1ccccc1)C(=O)O)c1ccc(-c2ccc(Cl)cc2)cc1 (stereo not drawn) [Example 131, [1,1'-Biphenyl]-4-butanoic acid, 4'-chloro-γ-oxo-α-(phenylmethyl)-]

Structure (SMILES): O=C(C[C@@H](CCCc1ccccc1)C(=O)O)c1ccc(-c2ccc(Cl)cc2)cc1 [Example 115, 4-[4-(4-chlorophenyl)phenyl]-4-oxo-2R-(3-phenylpropyl)butanoic acid]
inhibition at 5 µM (MMP-3 [1]): 39% | inhibition at 5 µM (MMP-9 [3]): 31% | IC50 (MMP-3 [5]): > 1250 nM | IC50 (MMP-9 [6]): > 1250 nM | IC50 (MMP-2 [7]): 1750 nM

IC50 (MMP-3 [1]): 620 nM | IC50 (MMP-3 [2]): 240 nM | IC50 (MMP-9 [3]): 4300 nM
Structure (SMILES): CCCCCC(CC(=O)c1ccc(-c2ccc(Cl)cc2)cc1)C(=O)O (stereo not drawn) [Example 26, [1,1'-Biphenyl]-4-butanoic acid, 4'-chloro-γ-oxo-α-pentyl-]
